This is an account of results in doi:10.1101/2024.12.24.629646v1 (biorxiv, 2024).

The target of this assay is mGlu5 WT (Homo sapiens, UniProt P41594). The assay can be described thus: cell-based. Set-up: species or system HEK293.
mGlu5 WT, sequence (P41594 whole entry): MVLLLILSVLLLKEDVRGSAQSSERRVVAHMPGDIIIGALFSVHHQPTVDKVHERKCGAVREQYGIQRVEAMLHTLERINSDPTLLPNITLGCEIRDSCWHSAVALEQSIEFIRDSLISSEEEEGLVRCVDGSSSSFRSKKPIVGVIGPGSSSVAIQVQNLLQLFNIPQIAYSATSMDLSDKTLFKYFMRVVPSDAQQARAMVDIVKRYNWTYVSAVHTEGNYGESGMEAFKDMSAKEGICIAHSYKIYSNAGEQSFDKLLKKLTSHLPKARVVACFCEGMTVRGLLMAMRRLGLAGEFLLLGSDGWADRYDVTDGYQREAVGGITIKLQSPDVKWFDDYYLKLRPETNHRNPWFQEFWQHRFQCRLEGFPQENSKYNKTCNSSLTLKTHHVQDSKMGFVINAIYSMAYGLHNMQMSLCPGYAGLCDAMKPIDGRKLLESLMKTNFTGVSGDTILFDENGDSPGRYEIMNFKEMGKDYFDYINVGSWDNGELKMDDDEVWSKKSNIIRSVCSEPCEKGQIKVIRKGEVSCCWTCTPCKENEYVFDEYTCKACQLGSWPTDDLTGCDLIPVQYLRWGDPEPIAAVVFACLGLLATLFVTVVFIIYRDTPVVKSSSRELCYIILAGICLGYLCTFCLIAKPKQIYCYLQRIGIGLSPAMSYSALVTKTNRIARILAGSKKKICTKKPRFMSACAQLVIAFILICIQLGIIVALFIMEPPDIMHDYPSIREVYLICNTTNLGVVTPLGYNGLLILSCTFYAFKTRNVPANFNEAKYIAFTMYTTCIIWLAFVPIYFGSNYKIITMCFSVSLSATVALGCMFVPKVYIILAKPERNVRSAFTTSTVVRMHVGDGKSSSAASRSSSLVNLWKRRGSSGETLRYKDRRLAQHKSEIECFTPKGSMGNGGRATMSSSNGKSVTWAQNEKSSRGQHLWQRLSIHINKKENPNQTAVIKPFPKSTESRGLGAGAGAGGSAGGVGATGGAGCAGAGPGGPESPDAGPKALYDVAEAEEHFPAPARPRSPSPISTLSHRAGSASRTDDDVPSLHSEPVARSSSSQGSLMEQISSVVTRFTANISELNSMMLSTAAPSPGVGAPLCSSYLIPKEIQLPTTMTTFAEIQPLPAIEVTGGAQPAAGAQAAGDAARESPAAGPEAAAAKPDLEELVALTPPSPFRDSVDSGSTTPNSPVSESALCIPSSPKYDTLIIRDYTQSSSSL

As usually defined, the EC50 is the midpoint of the concentration-response curve. A higher EC50 goes with lower potency in that assay. Take `C[C@@H](NC(=O)c1ccc(C#Cc2cccc(F)c2)cn1)C(C)(C)O` [compound 1, VU0424465]: it took 0.00525 µM to reach a half-maximal effect (EC50).
Then `C[C@@H](NC(=O)c1ccc(/N=N/c2cccc(F)c2)cn1)C(C)(C)O` [compound 2, (R,E)-5-((3-fluorophenyl)diazenyl)-N-(3-hydroxy-3-methylbutan-2-yl)picolinamide], with 1.17 µM.
